The record followed here is patent publication US11458138B2 (Novartis AG, priority 2017, dated 2022).

SMILES strings stand for the structures. A value given as a limit tells only on which side of the number the result lay.

As a reminder, the IC50 is the concentration at which inhibition is half-maximal. Read a high IC50 as lower potency. The term EC50 denotes the concentration needed to bring the measured effect to its halfway point. Higher therefore signals lower potency in that assay.

Experiment [1] concerns Phospho-YAP (SER127) in HaCaT cells. Nature of the experiment: pYAP HTRF Assay (HaCaT Cells). To be noted: 2 hours. The class given is cell-based, human. Here is the method: The pYAP HTRF assay was performed using the Phospho-YAP (SER127) 10000 test kit (CisBio, catalogue number 64YAPPEH) according to manufacturer's instructions. Briefly, HaCaT cells were suspended at 1.1×10^6 cells/mL in DMEM (no phenol red)+10% FBS with penicillin-streptomycin-glutamine. 5 μL of cells were dispensed into 1536 well white solid bottom, tissue culture treated plates (5500 cells/well), and incubated for 48 hours at 37° C. 50 nL test compound was transferred into the assay plates containing HaCaT cells using Pintool (GNF) and incubated for 2 hours. […] The plates were incubated overnight (20 hrs) at room temperature covered with metal lids. Plates were read on Pherastar (BMG Labtech) for HTRF (665 nm/620 nm).
For orientation: Time-resolved FRET reads energy transfer from a long-lived donor to a nearby acceptor.

In experiment [2] the test system is YAP nuclear translocation in HaCaT cells. Kind of experiment: YAP Translocation Assay (HaCaT Cells). Conditions: 24 hours. The class given is cell-based, human. Here is the method: HaCaT cells were suspended at 0.4×10^6 cells/ml in DMEM+10% FBS with penicillin-streptomycin-glutamine. 50 μl of cells were dispensed into 384-well clear bottom assay plates (20,000 cells/well), and incubated overnight at 37° C. 100 nL test compound was transferred into the assay wells containing HaCaT cells using ECHO (Labcyte). After 24 hours incubation at 37° C., 7 μL of 32% PFA was dispensed into each well and incubated for 45 minutes at room temperature. Plates were washed 3 times with PBS, leaving 20 μL of PBS per well, then treated with 0.1% Triton and 1.5% BSA in PBS for 45 minutes at room temperature. Plates were washed for 5 times with PBS, leaving 20 μL of PBS per well. […] Plates were further washed 3 time with PBS, sealed and imaged on the high-content Opera imaging system (PerkinElmer).

For experiment [3], the target named is LATS1 (Homo sapiens (Human), UniProt O95835). Nature of the experiment: LATS1 biochemical assay (Table 1A, Compound Examples 1-290; method in the earlier part).
Chain of LATS1 (O95835 whole entry, looked up): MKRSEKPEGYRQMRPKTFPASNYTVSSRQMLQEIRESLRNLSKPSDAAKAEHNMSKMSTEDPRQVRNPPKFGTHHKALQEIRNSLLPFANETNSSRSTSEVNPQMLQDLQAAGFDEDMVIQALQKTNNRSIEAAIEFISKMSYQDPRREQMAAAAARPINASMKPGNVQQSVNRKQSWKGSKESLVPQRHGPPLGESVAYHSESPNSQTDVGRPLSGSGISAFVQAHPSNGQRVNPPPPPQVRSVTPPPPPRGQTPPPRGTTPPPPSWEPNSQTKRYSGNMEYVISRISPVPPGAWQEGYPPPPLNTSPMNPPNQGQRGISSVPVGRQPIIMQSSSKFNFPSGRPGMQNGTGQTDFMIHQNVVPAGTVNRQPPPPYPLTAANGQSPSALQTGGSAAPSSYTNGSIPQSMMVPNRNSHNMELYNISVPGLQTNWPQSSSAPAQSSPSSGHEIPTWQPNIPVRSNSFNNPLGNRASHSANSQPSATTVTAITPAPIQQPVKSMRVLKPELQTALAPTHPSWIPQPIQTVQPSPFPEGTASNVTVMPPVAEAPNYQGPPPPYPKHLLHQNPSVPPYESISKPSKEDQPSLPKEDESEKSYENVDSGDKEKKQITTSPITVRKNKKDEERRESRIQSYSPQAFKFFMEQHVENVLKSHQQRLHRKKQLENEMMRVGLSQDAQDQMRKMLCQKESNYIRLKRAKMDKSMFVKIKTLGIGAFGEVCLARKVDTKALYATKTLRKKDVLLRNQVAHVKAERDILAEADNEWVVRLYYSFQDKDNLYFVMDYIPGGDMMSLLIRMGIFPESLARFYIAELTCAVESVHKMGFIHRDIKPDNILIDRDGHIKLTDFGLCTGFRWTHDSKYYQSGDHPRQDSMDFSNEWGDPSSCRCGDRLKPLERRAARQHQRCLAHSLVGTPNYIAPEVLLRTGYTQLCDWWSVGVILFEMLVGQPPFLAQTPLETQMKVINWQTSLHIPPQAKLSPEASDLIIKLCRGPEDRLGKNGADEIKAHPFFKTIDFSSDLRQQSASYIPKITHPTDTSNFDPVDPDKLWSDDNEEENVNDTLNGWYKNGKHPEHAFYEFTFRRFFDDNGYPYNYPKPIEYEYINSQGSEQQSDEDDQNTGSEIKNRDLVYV
Chain of LATS1 (Q7L9L4 whole entry partner, looked up): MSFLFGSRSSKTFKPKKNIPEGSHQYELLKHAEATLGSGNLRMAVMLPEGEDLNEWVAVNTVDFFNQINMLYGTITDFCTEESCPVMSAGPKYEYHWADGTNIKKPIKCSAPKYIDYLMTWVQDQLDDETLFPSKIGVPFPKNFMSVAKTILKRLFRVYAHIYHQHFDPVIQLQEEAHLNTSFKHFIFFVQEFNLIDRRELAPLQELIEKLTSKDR

In the case of `C[C@H]1CCC[C@H]1Nc1nc(-c2ccncc2)nc2cnccc12` (single isomer, unassigned) [Example 17a], the figures for the IC50 in experiment [1] (Homo sapiens) and in experiment [3] were 4.95 µM and 0.003 µM, respectively. This compound also registered an EC50 in experiment [2] (Homo sapiens) of 4.1 µM.

As for `C[C@@H]1CCC[C@@H]1Nc1nc(-c2ccncc2)nc2cnccc12` (single isomer, unassigned) [Example 17b], the IC50 in experiment [1] (Homo sapiens) was 0.765 µM; in experiment [3], 0.0009 µM. In addition, the EC50 in experiment [2] (Homo sapiens) stood at 1.22 µM.

As for `CC1CCCC1Nc1nc(-c2ccncc2)nc2cnccc12` (single isomer, unassigned) [Example 17c], the IC50 was 4.28 µM in experiment [1] and 0.003 µM in experiment [3]. Moreover, in experiment [2], the midpoint of the response, the EC50, lay at 4.68 µM.

In the case of `CC1CCCC1Nc1nc(-c2ccncc2)nc2cnccc12` (single isomer, unassigned) [Example 17d], the IC50 in experiment [1] came to 0.402 µM; in experiment [3], 0.001 µM. This compound yielded an EC50 in experiment [2] of 1.72 µM.

`CC[C@H](C)Nc1nc(-c2ccncc2)nc2cnccc12` (single isomer, unassigned) [Example 68a]: the results for the IC50 in experiment [1] (Homo sapiens) and in experiment [3] were 1.43 µM and 0.001 µM, respectively. The compound also showed an EC50 in experiment [2] (Homo sapiens) of 1.68 µM.

Take `CC[C@@H](C)Nc1nc(-c2ccncc2)nc2cnccc12` (single isomer, unassigned) [Example 68b]: the IC50 in experiment [1] (Homo sapiens) was determined as 4.27 µM; in experiment [3] it was 0.002 µM. The compound also had an EC50 in experiment [2] (Homo sapiens) of 2.92 µM.

On to `CC(C)(Nc1nc(-c2ccncc2)nc2cnccc12)C1CC1` [Example 1, N-(2-cyclopropylpropan-2-yl)-2-(pyridin-4-yl)pyrido[3,4-d]pyrimidin-4-amine], for which the IC50 in experiment [1] (Homo sapiens) was 0.019 µM; in experiment [3], 0.001 µM. The same compound showed an EC50 in experiment [2] (Homo sapiens) of 0.326 µM.

For the compound `CCCCN(C)c1nc(-c2ccncc2)nc2cnccc12` [Example 9, N-butyl-N-methyl-2-(pyridin-4-yl)pyrido[3,4-d]pyrimidin-4-amine], the values for the IC50 in experiment [1] (Homo sapiens) and in experiment [3] were 2.1 µM and 0.003 µM, respectively. The midpoint of the response in experiment [2] (Homo sapiens), the EC50, lay at 2.42 µM.

Consider `CCNc1nc(-c2ccncc2)nc2cnccc12` [Example 13, N-ethyl-2-(pyridin-4-yl)pyrido[3,4-d]pyrimidin-4-amine], for which the IC50 was 13.5 µM in experiment [1] (Homo sapiens) and 0.004 µM in experiment [3]. In experiment [2] (Homo sapiens), the EC50 came out at 8.51 µM.

With `Cc1n[nH]c(C)c1-c1nc(NC(C)(C)C(F)(F)F)c2ccncc2n1` [Example 144, 2-(3,5-dimethyl-1H-pyrazol-4-yl)-N-(1,1,1-trifluoro-2-methylpropan-2-yl)pyrido[3,4-d]pyrimidin-4-amine], inhibition in experiment [1] (Homo sapiens) was half-maximal at 0.606 µM (IC50). In experiment [2] (Homo sapiens), this compound had an EC50 of 4.44 µM.

The compound `CC1(Nc2nc(-c3ccnc4[nH]ccc34)nc3cnccc23)CC1` [Example 154, N-(1-methylcyclopropyl)-2-{1H-pyrrolo[2,3-b]pyridin-4-yl}pyrido[3,4-d]pyrimidin-4-amine] had an IC50 in experiment [1] (Homo sapiens) of 2.53 µM. This compound had an EC50 in experiment [2] (Homo sapiens) of 1.06 µM.

In experiment [2] (Homo sapiens), `Fc1cnccc1-c1cc(N2CCCCC2)c2ccncc2n1` [Example 278, 2-(3-fluoropyridin-4-yl)-4-(piperidin-1-yl)-1,7-naphthyridine] registered an EC50 above 20 µM. In experiment [3], this compound came in with an IC50 of 0.09 µM.

Consider `Fc1cnccc1-c1cc(N2CCOCC2)c2ccncc2n1` [Example 279, 2-(3-fluoropyridin-4-yl)-4-(morpholin-4-yl)-1,7-naphthyridine], for which the EC50 in experiment [2] (Homo sapiens) is above 20 µM. In experiment [3], this compound had an IC50 above 2.5 µM.

In experiment [2] (Homo sapiens), `CC(C)(C)Nc1cc(-c2ccncc2Cl)nc2cnccc12` [Example 285, N-tert-butyl-2-(3-chloropyridin-4-yl)-1,7-naphthyridin-4-amine] came in with an EC50 above 20 µM. Further, half-maximal inhibition in experiment [3] (IC50) was put at 0.19 µM.

`CCN(CC)c1cc(-c2ccncc2Cl)nc2cnccc12` [Example 286, 2-(3-chloropyridin-4-yl)-N,N-diethyl-1,7-naphthyridin-4-amine]: in experiment [2] (Homo sapiens), the EC50 is above 20 µM. This compound had an IC50 in experiment [3] of 0.56 µM.
